Source: US8569039B2, “Ethanol resistance Saccharomyces cerevisiae GP-01 by protoplast fusion, method for manufacturing thereof, method for manufacturing yeast containing high content of bio organic germanium by using Saccharomyces cerevisiae GP-01 and high water soluble sodium metagermanate as a germanium source” (Geranti Pharm Ltd., priority 2008, dated 2013)
Like-named read-outs stand apart in the source and are kept apart here.

Key:
[1] = Solubility of the germanium source; type: physicochemical; conditions: 25° C.
Method: The solution of Sodium Metagermanate (Na2GeO3) was prepared by dissolving sodium carbonate (Na2CO3, Kanto, Japan) in water, adding germanium dioxide (GeO2, PPM GmbH, Germany) at the equivalent ratio of 1:1 against the said sodium carbonate, and sterilized the obtained solution.

[2] = test system: yeast GP-01 (KCTC 11399BP); assay: Bio-germanium content in yeast by mixing ratio of yeast and Ge solution; type: cell-based, Saccharomyces Cerevisiae; conditions: for Bio-germanium content in yeast GP-01: 20 hours, pH 10, 40° C.
Method: (§1) In order to determine the content of bio-germanium in the yeast GP-01, 1 g of the cultivated and dried yeast GP-01 was added in 30 ml of nitric acid. The obtained sample was heated to be decomposed. After adjusting pH value to 6, 1 ml of the sample was mixed with 1 ml of phenylfluorone and 1 ml of cyclo nucleic acid. The obtained sample was stationary for 30 hours at 30° C. and then determined the content of germanium in the yeast GP-01 by using UV spectrophotometer at 525 nm.
The broth containing the ethanol-resistant yeast GP-01 as prepared in the Example 1 was centrifuged to collect the yeast. […] The obtained solutions were cultivated for 20 hours at pH 10 and temperature 40° C.
Also, as a control, the same procedure described in Example 3 was performed, except that a solution of (inorganic) germanium dioxide (GeO2) was used instead of sodium metagermanate (Na2GeO3).
The contents of germanium in the yeast GP-01 (KCTC 11399BP) was measured by the same method as Example 2.

[3] = test system: Saccharomyces Cerevisiae (KCTC 7904); assay: Bio-germanium content inoculated into the yeast by content of germanium in the solution; type: cell-based; conditions: KCTC7904; for Bio-germanium content inoculated into the yeast: 20 hours, pH 10, 40° C.
[4] = test system: yeast GP-01 (KCTC11399BP); assay: Germanium inoculated into the yeast by pH, temperature and surfactant concentration; type: cell-based, Saccharomyces Cerevisiae; conditions: 5,000 ppm germanium, ratio 1:0.5, 20 hours
Method: as §1
The broth containing the ethanol-resistant yeast GP-01 as prepared in the Example 1 was centrifuged to collect the yeast. At the ratio of 1:0.5, the collected yeast was added in the solution of sodium metagermanate (Na2GeO3) having 5,000 ppm of germanium. After adding surfactant (Twin-80), the obtained solution was cultivated for 20 hours by various conditions for pH, temperature or the broth containing germanium.
The pH was regulated by using 1N NaOH, and a number of tests were repeatedly performed under different temperatures and concentrations of surfactant.
When measuring the content of germanium, the broth without adding the surfactant was used as a control.
The measurement of content of bio-germanium in the yeast GP-01 (KCTC11399BP) of the present invention was made by the same method as Example 2.

[5] = test system: yeast GP-01 (KCTC11399BP); assay: Bio-germanium content inoculated into the yeast by content of germanium in the solution; type: cell-based, Saccharomyces Cerevisiae; conditions: for Bio-germanium content inoculated into the yeast: 20 hours, pH 10, 40° C.
Method: The broth medium containing the mutated Saccharomyces Cerevisiae, yeast GP-01 (KCTC11399BP), was centrifuged to collect the palletized yeast. The collected pelletized yeast was added in each of the solutions of sodium metagermanate (Na2GeO3) with different concentrations of germanium. The prepared solutions were cultivated for 20 hours at pH 10 and temperature 40° C.
as §1, with “nm. […]” for “nm.”

[6] = test system: yeast GP-01 (KCTC 11399BP)
Method: (§2) In order to examine the ethanol resistance of the obtained yeast GP-01, the ethanol, which is the inhibitor of the growth, was added by the concentrations and the status of the growth of the yeast was checked.

[7] = test system: Saccharomyces Cerevisiae (KCTC 7904); conditions: KCTC7904
Method: as §2

[8] = 25° C.; cited from earlier work
[9] = mixing ratio yeast GP-01:Ge solution 1:0.2
[10] = mixing ratio yeast GP-01:Ge solution 1:0.5
[11] = mixing ratio yeast GP-01:Ge solution 1:1
[12] = mixing ratio yeast GP-01:Ge solution 1:2
[13] = mixing ratio yeast GP-01:Ge solution 1:3
[14] = germanium in the solution 3,000 ppm
[15] = germanium in the solution 4,000 ppm
[16] = germanium in the solution 5,000 ppm
[17] = germanium in the solution 10,000 ppm
[18] = germanium in the solution 15,000 ppm
[19] = germanium in the solution 1,000 ppm
[20] = germanium in the solution 2,000 ppm

Compound: [Na+].[Na+].[O]=[Ge]([O-])[O-] [Na2GeO3 solution, sodium metagermanate]
- solubility [1]: 500 g/L
- increase of content of bio-germanium versus germanium dioxide ([2]; Na2GeO3 solution compared with germanium dioxide, Table 3): 2-4 times
- Bio-germanium content in yeast GP-01 [2, 9]: 4,350 ppm
- Bio-germanium content in yeast GP-01 [2, 10]: 14,800 ppm
- Bio-germanium content in yeast GP-01 [2, 11]: 12,600 ppm
- Bio-germanium content in yeast GP-01 [2, 12]: 9,760 ppm
- Bio-germanium content in yeast GP-01 [2, 13]: 8,720 ppm
- Yield (%) of germanium inoculated [3, 14]: 32%
- Bio-germanium content inoculated into the yeast [3, 14]: 950 ppm
- Yield (%) of germanium inoculated [3, 15]: 38%
- Bio-germanium content inoculated into the yeast [3, 15]: 1,500 ppm
- Yield (%) of germanium inoculated [3, 16]: 47%
- Bio-germanium content inoculated into the yeast [3, 16]: 2,370 ppm
- Yield (%) of germanium inoculated [3, 17]: 45%
- Bio-germanium content inoculated into the yeast [3, 17]: 4,500 ppm
- Yield (%) of germanium inoculated [3, 18]: 38%
- Bio-germanium content inoculated into the yeast [3, 18]: 5,730 ppm
- Bio-germanium inoculated ([4]; Control: broth without adding the surfactant): 1,720 ppm
- Bio-germanium inoculated ([4]; pH 4.0): 2,190 ppm
- Bio-germanium inoculated ([4]; pH 5.0): 3,254 ppm
- Bio-germanium inoculated ([4]; pH 6.0): 5,320 ppm
- Bio-germanium inoculated ([4]; pH 6.5): 5,790 ppm
- Bio-germanium inoculated ([4]; pH 7.0): 9,750 ppm
- Bio-germanium inoculated ([4]; pH 8.0): 10,700 ppm
- Bio-germanium inoculated ([4]; pH 9.0): 15,200 ppm
- Bio-germanium inoculated ([4]; pH 10.0): 16,300 ppm
- Bio-germanium inoculated ([4]; pH 11.0): 9,320 ppm
- Bio-germanium inoculated ([4]; surfactant Twin-80 0.1 wt %): 8,743 ppm
- Bio-germanium inoculated ([4]; surfactant Twin-80 0.2 wt %): 16,250 ppm
- Bio-germanium inoculated ([4]; surfactant Twin-80 0.3 wt %): 12,530 ppm
- Bio-germanium inoculated ([4]; surfactant Twin-80 0.4 wt %): 9,670 ppm
- Bio-germanium inoculated ([4]; surfactant Twin-80 0.5 wt %): 7,624 ppm
- Bio-germanium inoculated ([4]; surfactant Twin-80 0.6 wt %): 5,670 ppm
- Bio-germanium inoculated ([4]; surfactant Twin-80 0.7 wt %): 4,830 ppm
- Bio-germanium inoculated ([4]; surfactant Twin-80 0.8 wt %): 2,700 ppm
- Bio-germanium inoculated ([4]; temperature 20 ° C.): 3,102 ppm
- Bio-germanium inoculated ([4]; temperature 30 ° C.): 9,648 ppm
- Bio-germanium inoculated ([4]; temperature 35 ° C.): 13,250 ppm
- Bio-germanium inoculated ([4]; temperature 40 ° C.): 14,700 ppm
- Bio-germanium inoculated ([4]; temperature 45 ° C.): 8,350 ppm
- Bio-germanium inoculated ([4]; temperature 50 ° C.): 4,564 ppm
- Yield (%) of germanium inoculated [5, 14]: 155%
- Bio-germanium content inoculated into the yeast [5, 14]: 4,640 ppm
- Yield (%) of germanium inoculated [5, 15]: 171%
- Bio-germanium content inoculated into the yeast [5, 15]: 6,840 ppm
- Yield (%) of germanium inoculated [5, 16]: 194%
- Bio-germanium content inoculated into the yeast [5, 16]: 9,700 ppm
- Yield (%) of germanium inoculated [5, 17]: 130%
- Bio-germanium content inoculated into the yeast [5, 17]: 13,000 ppm
- Yield (%) of germanium inoculated [5, 18]: 110%
- Bio-germanium content inoculated into the yeast [5, 18]: 16,500 ppm

Compound: CCO [ethanol]
- Growth status OD(660 nm, 1/20) ([6]; GP-01 1st investigation, ethanol 6.0 % v/v): 0.15
- Growth status OD(660 nm, 1/20) ([6]; GP-01 1st investigation, ethanol 8.0 % v/v): 0.14
- Growth status OD(660 nm, 1/20) ([6]; GP-01 1st investigation, ethanol 10.0 % v/v): 0.16
- Growth status OD(660 nm, 1/20) ([6]; GP-01 1st investigation, ethanol 15.0 % v/v): 0.12
- Growth status OD(660 nm, 1/20) ([6]; GP-01 2nd investigation, ethanol 6.0 % v/v): 0.14
- Growth status OD(660 nm, 1/20) ([6]; GP-01 2nd investigation, ethanol 8.0 % v/v): 0.20
- Growth status OD(660 nm, 1/20) ([6]; GP-01 2nd investigation, ethanol 10.0 % v/v): 0.19
- Growth status OD(660 nm, 1/20) ([6]; GP-01 2nd investigation, ethanol 15.0 % v/v): 0.08
- Growth status OD(660 nm, 1/20) ([6]; GP-01 3rd investigation, ethanol 6.0 % v/v): 0.20
- Growth status OD(660 nm, 1/20) ([6]; GP-01 3rd investigation, ethanol 8.0 % v/v): 0.23
- Growth status OD(660 nm, 1/20) ([6]; GP-01 3rd investigation, ethanol 10.0 % v/v): 0.24
- Growth status OD(660 nm, 1/20) ([6]; GP-01 3rd investigation, ethanol 15.0 % v/v): 0.15
- Growth status OD(660 nm, 1/20) ([7]; ethanol 6.0 % v/v): 0.07
- Growth status OD(660 nm, 1/20) ([7]; ethanol 8.0 % v/v): 0.06
- Growth status OD(660 nm, 1/20) ([7]; ethanol 10.0 % v/v): 0.05

Compound: germanium dioxide [GeO2 solution, reference compound]
- solubility [8]: 5.2 g/L
- Bio-germanium content in yeast GP-01 [2, 9]: 1,920 ppm
- Bio-germanium content in yeast GP-01 [2, 10]: 5,670 ppm
- Bio-germanium content in yeast GP-01 [2, 11]: 4,780 ppm
- Bio-germanium content in yeast GP-01 [2, 12]: 2,500 ppm
- Bio-germanium content in yeast GP-01 [2, 13]: 1,700 ppm
- Yield (%) of germanium inoculated [3, 19]: 78%
- Bio-germanium content inoculated into the yeast [3, 19]: 780 ppm
- Yield (%) of germanium inoculated [3, 20]: 44%
- Bio-germanium content inoculated into the yeast [3, 20]: 870 ppm
- Yield (%) of germanium inoculated [3, 14]: 33%
- Bio-germanium content inoculated into the yeast [3, 14]: 980 ppm
- Yield (%) of germanium inoculated [3, 15]: 36%
- Bio-germanium content inoculated into the yeast [3, 15]: 1,430 ppm
- Yield (%) of germanium inoculated [3, 16]: 30%
- Bio-germanium content inoculated into the yeast [3, 16]: 1,500 ppm
- Yield (%) of germanium inoculated [5, 19]: 87%
- Bio-germanium content inoculated into the yeast [5, 19]: 870 ppm
- Yield (%) of germanium inoculated [5, 20]: 89%
- Bio-germanium content inoculated into the yeast [5, 20]: 1,786 ppm
- Yield (%) of germanium inoculated [5, 14]: 89%
- Bio-germanium content inoculated into the yeast [5, 14]: 2,670 ppm
- Yield (%) of germanium inoculated [5, 15]: 96%
- Bio-germanium content inoculated into the yeast [5, 15]: 3,850 ppm
- Yield (%) of germanium inoculated [5, 16]: 95%
- Bio-germanium content inoculated into the yeast [5, 16]: 4,753 ppm
